From article PMC11343376, “In vivo pharmacokinetics of ginsenoside compound K mediated by gut microbiota” (PLOS ONE, 2024)
Like-named read-outs stand apart in the source and are kept apart here. One block for each compound: values may come before it.

Columns and labels:
[1] = Pharmacokinetics of GCK in SPF and pseudo-GF rats after single oral administration (LC-MS/MS of plasma); type: in vivo, Sprague-Dawley (SD) rats; conditions: for AUC(0-inf) / Tmax / half-life / AUC(0-t) / CL/F / MRT last / Vd/F / Cmax: Sprague-Dawley, rat, plasma, po, 22.5 mg/kg, GCK 22.5 mg/kg single oral dose; for AUC(0-t): read-out: AUC (0–11); for CL/F: read-out: CLz/F (converted); for MRT last: read-out: MRT(0–11); for Vd/F: read-out: Vz/F; for Cmax: rat plasma, n = 7, mean ± SD
Procedure: SD rats were randomly divided into two groups: normal control group (SPF group, n = 7) and pseudo-GF group (n = 7). To deplete the gut microbiota, a solution of ampicillin (50 mg/kg), vancomycin (25 mg/kg), neomycin sulfate (50 mg/kg), and metronidazole (50 mg/kg) were orally administered. Fresh antibiotic concoction with fed ampicillin in water (0.25 g/L) were prepared every day for a week. The feces were collected three days after withdrawal, and then the gut bacterial DNA was extracted with a stool DNA kit (Omega, D4015-01) and measured by Nonodrop 3000 spectrophotometer (Shimadzu, Japan).
The mass spectrometer analysis was performed on QTRAP 6500^+ low mass spectrometers. The Phenomenex LUNA C18 (2) Reversed Phase (Phenomenex, 150 × 2.0 mm, i.d., 5 μm) was used for the chromatographic separation with a mobile phase of acetonitrile (A) and the aqueous phase of 2 mM ammonium acetate (B) at a flow rate of 0.3 mL/min. The gradient elution procedure was set at 0−2 min: 20%A, 2−3 min: 20−65%A, 3−4 min: 65−75%A, 4−5 min: 75−90%A, 5−6 min: 90−100%A, and the re-equilibration time was set for 5 mins with 20%A after gradient elution. The tailing factors under the selected chromatographic conditions were calculated as 0.993 and 0.996 for GCK and PPD, respectively, while the theoretical plates were measured as 1.13 × 10^4. The injection volume was 10 μL with the temperature of column at 40°C. The mass spectrometer parameters were optimized as follow, Curtain Gas (CUR), 35; collision gas, 9;, ionspray voltage,-4500 V; temperature, 450°C; curtain gas, 35 psi; ion source gas 1, 50 psi; ion source gas 2, 55 psi. Both GCK and PPD were analyzed in multiple reaction monitoring (MRM) mode, shown as Fig 1.
After fasted for 12 h, all animals were once orally administrated with a medium dose of GCK (22.5 mg/kg) in 0.9% normal saline. Blood samples were collected from the tail vein at 0 h, 0.5 h, 1 h, 1.5 h, 2.5 h, 3 h, 3.5 h, 4 h, 5 h, 6 h, 7 h, 9.5 h, and 11 h after oral administration. All blood samples were immediately centrifuged at 4000 rpm for 20 min at 4°C. Approximate 100 μL of supernatant was collected and stored at -80°C for analysis. Non-compartmental model analysis was operated on DAS 2.0 software of the Chinese Pharmacological Society, and pharmacokinetic parameters were calculated accordingly.
The blood samples (50 μL) were mixed with 150 μL of digoxin solution (Internal standard (IS), 3.33 ng/mL), subsequently vortex-mixed and centrifuged at 1.4 × 10^4 rpm (4°C) to remove the precipitated proteins for 10 min, respectively. Finally, 100 μL of supernatant was subjected to LC-MS/ MS analysis.
Pharmacokinetics parameters including AUC, terminal elimination half-life (T1/2), mean retention time (MRT), apparent distribution volume (Vz/ F), and clearance rate (CL) were calculated using non-compartmental model analysis (DAS 2.0 software, Chinese Pharmacological Association, China). Other parameters, such as maximum plasma concentration (Cmax) and time to maximum plasma concentration (Tmax), were obtained directly from the plasma concentration-time diagram. All data were expressed as mean ± SD. Significant differences were marked by the symbols ** p < 0.01, *** p < 0.001, and **** p < 0.0001.

[2] = Freeze/thaw and long-term stability of QC samples in rat plasma; type: physicochemical; conditions: n = 6; for Freeze/thaw stability Accuracy: frozen –80°C / thawed 25°C three cycles; for long-term stability Accuracy: –80°C for thirty days
Procedure: The LQC, MQC, and HQC samples were stored at –80°C for thirty days. The employed samples were tested to assess long-term stability. Six replicates of all QC samples were frozen at –80°C and thawed at 25°C for three cycles, which were then determined to assess the freeze/thaw cycle stability. The variabilities of precision and accuracy should be within15%.

[3] = set-up: method as in PMID 28955238; conditions: human plasma, single dose of oral GCK; ref [14]; cited from earlier work
[4] = pseudo-GF rats compared with SPF rats
[5] = high QC (GCK 552, PPD 456 ng/mL)
[6] = low QC (GCK 10.8, PPD 8.91 ng/mL)
[7] = middle QC (GCK 86.3, PPD 71.3 ng/mL)

AUC(0-inf) ([1]; SPF group): 679 ± 284 ng·h/mL
Tmax ([1]; SPF group): 3.36 ± 1.25 h
half-life ([1]; SPF group): 2.2 ± 1.69 h
AUC(0-t) ([1]; SPF group): 586 ± 161 ng·h/mL
CL/F ([1]; SPF group): 632 mL/min/kg
MRT last ([1]; SPF group): 4.16 ± 1.11 h
Vd/F ([1]; SPF group): 96.5 ± 44.9 L/kg
Cmax ([1]; SPF group): 162 ± 46.9 ng/mL
AUC(0-inf) ([1]; pseudo-GF group): 2300 ± 1630 ng·h/mL
Tmax ([1]; pseudo-GF group): 5.86 ± 1.35 h
half-life ([1]; pseudo-GF group): 3.93 ± 1.65 h
AUC(0-t) ([1]; pseudo-GF group): 1340 ± 402 ng·h/mL
CL/F ([1]; pseudo-GF group): 226 mL/min/kg
MRT last ([1]; pseudo-GF group): 6.05 ± 0.42 h
Vd/F ([1]; pseudo-GF group): 63.2 ± 15.4 L/kg
Cmax ([1]; pseudo-GF group): 259 ± 70 ng/mL
AUC increased ([1]; pseudo-GF group compared with SPF group): approximately twice
AUC 0–11 increased by [1, 4]: 1.3 times
Cmax times higher than that of SPF rats [1, 4]: 1.6 times
CLz/F decreased by ([1]; pseudo-GF rats compared with SPF rats, P <0.01): 0.6 times
Freeze/thaw stability Accuracy [2, 5]: 104.11%
Freeze/thaw stability Accuracy [2, 6]: 102.76%
Freeze/thaw stability Accuracy [2, 7]: 106.47%
long-term stability Accuracy [2, 5]: 103.91%
long-term stability Accuracy [2, 6]: 95.56%
long-term stability Accuracy [2, 7]: 103.32%
Compound: CC(C)=CCCC(C)(OC1OC(CO)C(O)C(O)C1O)C1CCC2(C)C1C(O)CC1C3(C)CCC(O)C(C)(C)C3CCC12C (stereo not drawn) [GCK, Ginsenoside Compound K]

Compound: CC(C)=CCC[C@](C)(O)[C@H]1CC[C@]2(C)[C@@H]1[C@H](O)C[C@@H]1[C@@]3(C)CC[C@H](O)C(C)(C)[C@@H]3CC[C@]12C [PPD, protopanaxadiol]
Detection of the metabolite PPD in rat plasma ([1]; after single oral GCK 22.5 mg/kg, both SPF and pseudo-GF groups, LLOQ 4.45 ng/mL): not detected
Freeze/thaw stability Accuracy [2, 5]: 89.65%
Freeze/thaw stability Accuracy [2, 6]: 92.44%
Freeze/thaw stability Accuracy [2, 7]: 93.50%
long-term stability Accuracy [2, 5]: 101.93%
long-term stability Accuracy [2, 6]: 96.17%
long-term stability Accuracy [2, 7]: 97.83%
Cmax of PPD [3]: ~4.2 ng/mL
T1/2 of PPD [3]: more than 19 hours
Tmax of PPD [3]: ~25 h
